Entries after “also recorded” stand apart in the source; their conditions may differ. Values belong to the compound of their own block, whether it stands above or below them.
Columns and labels:
nucleophosmin [1] = molecular target: T1, nucleophosmin (Homo sapiens, UniProt P06748); experiment: Competitive binding affinity-isolation with probe 5 in T-47D lysates, nucleophosmin; conditions: for inhibition of binding of nucleophosmin to probe 5 by analogues (FIG. 4): T-47D nuclear-enriched lysate
LNCaP cells = experiment: Antiproliferative assay (CellTiter-Blue), LNCaP cells; type: cell-based, human; conditions: 72-h incubation
Experimental: G. Antiproliferative Assays. […] The cell suspension was diluted to 1.0×10^5 cells/mL. A multichannel pipette was used to load the wells of a 96-well plate with 100 μL per well of the diluted cell suspension. […] The following day, 100-μg portions of the nitrone samples were removed from the freezer, thawed, and dissolved in filter-sterilized DMSO to a concentration of 5 mM. A 6.5-μL aliquot of the nitrone solution was dissolved in 643.5 μL of medium to achieve a working concentration of 50 μM. Serial dilutions were employed to generate a range of different concentrations for analysis. […] Fluorescence (560 nm excitation/590 nm emission) was recorded on a 96-well plate reader following a 4.0-h incubation period (37° C., 5% CO2). Percent growth inhibition was calculated for each well, based upon the following formula: Percent growth inhibition=100×(S−B0)/(Bt−B0); where S is the sample reading, Bt is the average reading for a vehicle-treated population of cells at the completion of the assay, and B0 is the average reading for an untreated population of cells at the beginning of the assay. […]
The treated cells were incubated for 72 h at 37° C. […] Fluorescence (560 nm excitation/590 nm emission) was recorded on a 96-well plate reader following a 4.0 h incubation period (37° C., 5% CO2).
Percent growth inhibition was calculated for each well, based upon the following formula: […]

T-47D cells = experiment: Antiproliferative assay (CellTiter-Blue), T-47D cells; type: cell-based, human; conditions: 72-h incubation
Experimental: G. Antiproliferative Assays. […] The cell suspension was diluted to 1.0×10^5 cells/mL. A multichannel pipette was used to load the wells of a 96-well plate with 100 μL per well of the diluted cell suspension. […] The following day, 100-μg portions of the nitrone samples were removed from the freezer, thawed, and dissolved in filter-sterilized DMSO to a concentration of 5 mM. A 6.5-μL aliquot of the nitrone solution was dissolved in 643.5 μL of medium to achieve a working concentration of 50 μM. Serial dilutions were employed to generate a range of different concentrations for analysis. Finally, 100-μL aliquots of this diluted nitrone solution were added to the wells containing adhered cells, resulting in final assay concentrations of up to 25 μM. The treated cells were incubated for 72 h at 37° C. (5% CO2). To each well was added 20 μL of CellTiter-Blue reagent, and the samples were returned to the incubator. Fluorescence (560 nm excitation/590 nm emission) was recorded on a 96-well plate reader following a 4.0-h incubation period (37° C., 5% CO2). Percent growth inhibition was calculated for each well, based upon the following formula: Percent growth inhibition=100×(S−B0)/(Bt−B0); where S is the sample reading, Bt is the average reading for a vehicle-treated population of cells at the completion of the assay, and B0 is the average reading for an untreated population of cells at the beginning of the assay. Each analogue was run a minimum of eight times, over a period of at least two weeks. For each compound, 14 separate concentrations were used in the assay, ranging from 25 μM to 8 nM. The average inhibition at each concentration was plotted against concentration, and a curve fit was generated. […] Final GI50 values reflect the concentrations at which the resulting curves pass through 50 percent inhibition.
The cell suspension was diluted to 1.0×10^5 cells/mL. A multichannel pipette was used to charge the wells of a 96-well plate with 100 μL per well of the diluted cell suspension.
The following day, a 6.5-μL aliquot of nitrone solution, at 5 mM in DMSO, was diluted in 643.5 μL of medium to achieve a working concentration of 50 μM. Serial dilutions were employed to generate a range of different concentrations for analysis. Finally, 100-μL aliquots of the diluted nitrone solutions were added to the wells containing adhered cells, resulting in final assay concentrations of up to 25 μM.
The treated cells were incubated for 72 h at 37° C. (5% CO2). To each well was added 20 μL of CellTiter-Blue reagent, and the samples were returned to the incubator. Fluorescence (560 nm excitation/590 nm emission) was recorded on a 96-well plate reader following a 4.0 h incubation period (37° C., 5% CO2).
Percent growth inhibition was calculated for each well, based upon the following formula:
Percent growth inhibition=100×(S−B0)/(Bt−B0)
where S is the sample reading, Bt is the average reading for a vehicle-treated population of cells at the completion of the assay, and B0 is the average reading for an untreated population of cells at the beginning of the assay.

[2] = test system: MALME-3M and MALME-3 cells; experiment: Selectivity assay, malignant melanoma MALME-3M versus fibroblast MALME-3; type: cell-based; conditions: MALME-3M versus MALME-3
Experimental: […]. A cell line from a healthy fibroblast from the same patient has also been deposited with the American Type Cell Culture Corporation (ATCC). Fresh stockes of both MALME-3M and MALME-3 from ATCC. Avrainvillamide was test against the two cells lines at the same time, taking all possible precautions to ensure that both sets of samples were treated identically. […] As a measure of cytotoxicity and antiproliferative activity, we calculated both LC50 and LC25 (as an estimate of GI50).
The 9.7-fold selectivity at 25 percent cell death is representative of at least a modest degree of selectivity. For comparison, cytochalsine B and geldanamycin were analyzed in identical experiments. Cytochalasine B is a non-selective cytotoxic agent for which a selectivity factor of 0.2 at 25 percent cell death was observed. Geldanamycin is known to be a potent, selective inhibitor of tumor cell growth for which a selectivity factor of >100 at 25 percent cell death was observed.

[3] = test system: NPM1.3 (nucleophosmin isoform); experiment: Affinity-isolation of NPM1.3 cysteine to alanine mutants expressed in COS-7 cells with probe 5; conditions: 1 μM probe 5, COS-7 cell lysates
[4] = molecular target: NPM1.3 (nucleophosmin isoform) (Homo sapiens, UniProt P06748, C275A); experiment: as above; conditions: 1 μM probe 5, COS-7 cell lysates
nucleophosmin [5] = molecular target: T1, nucleophosmin; experiment: Titration of probe 5-nucleophosmin binding in T-47D whole cell lysate; parameters: endogenous in cells; host or cells: T-47D (live cells, whole-cell lysate, nuclear-enriched lysate); conditions: whole-cell lysates of T-47D cells
Experimental: (§1) The supernatant was discarded.
A 1-mL aliquot of T-47D whole cell lysate was thawed at 4° C. and diluted with 4 mL wash buffer, to afford a working lysate of 1.5 mg/mL total protein.

proteins of T-47D cells = experiment: Affinity-isolation from T-47D cells, LC-MS/MS analysis of proteins; conditions: narrower region of the gel; equal concentrations
nucleophosmin [6] = molecular target: T1, nucleophosmin; experiment: Affinity-isolation from incubations with live T-47D cells, Western-blot detection of nucleophosmin; type: binding; parameters: endogenous in cells; host or cells: T-47D (live cells, whole-cell lysate, nuclear-enriched lysate); conditions: 3 μM 5 versus 9 μM 3, 90 min
Experimental: To identify potential binding proteins, populations of healthy (adherent) T-47D cells were treated with the newly synthesized biotin conjugate 5 or the structurally simpler biotin-containing probe 3, previously studied. As a control, a separate population of cells was treated with the biotin derivative 7, which lacks the unsaturated nitrone function. The treated cells were incubated with probe or control for 90 min at 37° C., then were harvested, washed and lysed. The individual lysates were exposed to an agarose resin to remove nonspecific binding proteins. After centrifugation, the supernatants were then exposed to a streptavidin-agarose resin. This resin was collected by centrifugation and washed. Bound proteins were released by heat-denaturation, separated by SDS-PAGE, and analyzed by LC-MS/MS and Western-blot.
The lysates were transferred to fresh 1.7-mL centrifuge tubes. Each individual sample lysate was treated with 50 μL of washed, well-suspended, two-fold diluted Sepharose resin. […] The supernatant was transferred to a clean 1.7-mL centrifuge tube.
as §1

peroxiredoxin 1 (PRX1) = molecular target: T2, peroxiredoxin 1 (PRX1) (Homo sapiens, UniProt Q06830); experiment: Competitive binding affinity-isolation with probe 5 in T-47D lysates, peroxiredoxin 1; conditions: 10 μM probe 5, 100 μM inhibitor
T2 construct: endogenous in cells; host or cells: T-47D lysate
Text: as §1
(§2) See above for solution preparation.

exportin-1 (XPO1) = molecular target: T3, exportin-1 (XPO1) (Homo sapiens, UniProt O14980); experiment: Competitive binding affinity-isolation with probe 5 in T-47D lysates, exportin-1; conditions: 10 μM probe 5, 100 μM inhibitor
T3 construct: endogenous in cells; host or cells: T-47D lysate
Text: as §1, §2

nucleophosmin [7] = molecular target: T1, nucleophosmin; experiment: Affinity-isolation following co-incubation with iodoacetamide; type: binding; parameters: endogenous in cells; host or cells: T-47D (live cells, whole-cell lysate, nuclear-enriched lysate); conditions: 10 μM probe 5, 10 mM iodoacetamide; whole cell lysate
Experimental: Identical affinity-isolation experiments to those described in the previous section were performed, except that iodoacetamide (8 μL of a freshly prepared 500 mM solution in DMSO) was added to one sample: […]

inhibition of binding of nucleophosmin to probe 5 by analogues (FIG. 4) (nucleophosmin [1]): least effectively inhibited
SMILES: CC1(C)C2=[N+]([O-])c3cc(C#Cc4ccccc4)ccc3C2=C[C@@]23NC(=O)C4(CCCN4C2=O)CC13 (some centres unmarked) [compound 10]

SMILES: COCCCCCCCCCCNS(=O)(=O)c1cccc2c(N(C)C)cccc12 [compound 6, reference compound]
inhibition of the growth of LNCaP cells (antiproliferative potency, in words) (LNCaP cells): inactive
inhibition of the growth of T-47D cells (antiproliferative potency, in words) (T-47D cells): inactive

SMILES: COC1=C2C[C@@H](C)C[C@H](OC)[C@H](O)[C@@H](C)/C=C(\C)[C@H](OC(N)=O)[C@@H](OC)/C=C\C=C(/C)C(=O)NC(=CC1=O)C2=O [Geldanamycin, reference compound]
selectivity factor, melanoma cells relative to fibroblast control (LC25, 25 percent cell death, estimate of GI50) [2]: > 100

inhibition of binding of nucleophosmin to probe 5 by analogues (FIG. 4) (nucleophosmin [1]): inhibited essentially equivalently
SMILES: CC1(C)C2=[N+]([O-])c3cc(-c4ccccc4)ccc3C2=C[C@@]23NC(=O)C4(CCCN4C2=O)CC13 (some centres unmarked) [compound 8]
inhibition of the growth of T-47D cells (antiproliferative potency, in words) (T-47D cells): nearly as potent as avrainvillamide

effect of deletion of cys275 on affinity-isolation of NPM1.3 [4]: greatly reduced
concentration of probe sufficient to afford detectable levels of nucleophosmin (nucleophosmin [5]): 100 to 500 nM
SMILES: CC1(C/C=C/CCCCCCCCOC(=O)CCCC[C@@H]2SC[C@@H]3NC(=O)N[C@@H]32)C=Cc2c(ccc3c2[N+]([O-])=C2C3=C[C@@]34NC(=O)C5(CCCN5C3=O)CC4C2(C)C)O1 (some centres unmarked) [compound 5]
effect of deletion of cys21 or cys104 on affinity-isolation of NPM1.3 [3]: little effect
inhibition of the growth of LNCaP cells (antiproliferative potency, in words) (LNCaP cells): somewhat less potent than the dansyl conjugate (4)
detection of nucleophosmin by LC-MS/MS after affinity isolation (proteins of T-47D cells): detected
inhibition of the growth of T-47D cells (antiproliferative potency, in words) (T-47D cells): potencies similar to the natural product
inhibition of the growth of T-47D cells (antiproliferative potency, in words) (T-47D cells; listed as biotin-avrainvillamide conjugate): nearly equipotent to (+)-avrainvillamide
affinity-isolation of nucleophosmin by biotinylated probe (Western-blot) (nucleophosmin [6]): more effectively bound nucleophosmin; also recorded: selectively bind

SMILES: CN(C)c1cccc2c(S(=O)(=O)NCCCCCCCCCCOc3ccc4c(c3)[N+]([O-])=C3C4=C[C@@]45NC(=O)C6(CCCN6C4=O)CC5C3(C)C)cccc12 (some centres unmarked) [compound 4]
inhibition of the growth of T-47D cells (antiproliferative potency, in words) (T-47D cells): potencies similar to the natural product

SMILES: CC1(C)C=Cc2c(ccc3c2[N+]([O-])=C2C3=C[C@@]34NC(=O)[C@]5(CCCN5C3=O)C[C@H]4C2(C)C)O1 (single isomer, unassigned; ent-1) [ent-1, (−)-avrainvillamide]
blocking of the binding of probe 5 to peroxiredoxin 1 (PRX1) (peroxiredoxin 1 (PRX1)): capable of blocking
blocking of the binding of probe 5 to exportin-1 (XPO1) (exportin-1 (XPO1)): capable of blocking
fold less potent than (+)-1 as inhibitor of T-47D cell growth (T-47D cells): ~3 fold
binding of nucleophosmin to probe 5 in the presence of a 10-fold higher concentration of competitor (nucleophosmin [1]; 10 μM probe 5, 100 μM competitor, nuclear-enriched and whole-cell T-47D lysates): not diminished
concentration required for inhibition of probe 5-nucleophosmin binding (nucleophosmin [1]; T-47D lysate): 500 µM
fold higher concentration versus 1 required for inhibition of probe 5-nucleophosmin binding (nucleophosmin [1]; T-47D lysate): ~5 fold

inhibition of binding of nucleophosmin to probe 5 by analogues (FIG. 4) (nucleophosmin [1]): only partially inhibited
SMILES: CC1(C)C2=[N+]([O-])c3ccc(-c4ccccc4)cc3C2=C[C@@]23NC(=O)C4(CCCN4C2=O)CC13 (some centres unmarked) [compound 9]
fold less potent than (+)-1 as inhibitor of T-47D cell growth (T-47D cells): 3 fold

SMILES: NC(=O)CI [iodoacetamide]
binding of nucleophosmin to probe 5 in the presence of a 1000-fold excess (nucleophosmin [7]): substantially reduced

inhibition of binding of nucleophosmin to probe 5 by analogues (FIG. 4) (nucleophosmin [1]): least effectively inhibited
SMILES: CC1(C)C2=[N+]([O-])c3c(cccc3-c3ccccc3)C2=C[C@@]23NC(=O)C4(CCCN4C2=O)CC13 (some centres unmarked) [compound 11]

SMILES: C=C1[C@@H](C)[C@H]2[C@H](Cc3ccccc3)NC(=O)[C@]23OC(=O)/C=C/[C@H](O)CCC[C@@H](C)C/C=C/[C@H]3[C@@H]1O [Cytochalasine B, reference compound]
selectivity factor, melanoma cells relative to fibroblast control (LC25, 25 percent cell death, estimate of GI50) [2]: 0.2
